The values that follow come from ChEMBL document CHEMBL1133427, “Membrane-permeant, bioactivatable analogues of cGMP as inducers of cell death in IPC-81 leukemia cells” (Bioorg Med Chem Lett, 2000).

Active and inactive are the calls of the source. The rule behind the calls is not given here.

Tested on in one assay: not listed separately
In words: Effective dose of compound required to induce death in IPC-81 leukemia cells; Range 40-80. The class given is functional, cell-based, Rattus norvegicus.
A word on the EC50: it is the concentration at which the effect is half-maximal. Read a high EC50 as a need for much substance. `CC(=O)OCOP1(=O)OC[C@@H]2O[C@@H](n3c(Br)nc4c(O)nc(N)nc43)[C@H](O)[C@@H]2O1` (stereo partly specified): it took 80 µM to reach a half-maximal effect (EC50).
As for `CC(=O)OCOP1(=O)OC[C@@H]2O[C@@H](n3cnc4c(=O)n(C)c(N)nc43)[C@H](O)[C@@H]2O1` (stereo partly specified), the EC50 amounted to 80 µM.

The species named for another assay is Rattus norvegicus. The experiment in a line: Compound was tested as initiator of cell death in IPC-81 leukemia cells; Inactive. It is filed as functional, cell-based.
As for `CC(=O)OCOP1(=O)OC[C@@H]2O[C@@H](n3c(Br)nc4c(O)nc(N)nc43)[C@H](O)[C@@H]2O1` (stereo partly specified), the outcome was inactive.
Take `CC(=O)OCOP1(=O)OC[C@@H]2O[C@@H](N3C(Sc4ccc(Cl)cc4)=NC4C(=O)N=C(N)N=C43)[C@H](O)[C@@H]2O1` (stereo partly specified): the outcome was inactive.
As to `CC(=O)OCOP1(=O)OC[C@@H]2O[C@@H](n3cnc4c(=O)n(C)c(N)nc43)[C@H](O)[C@@H]2O1` (stereo partly specified), the outcome was inactive.
For the compound `CC(=O)OCOP1(=O)OCC2OC(n3cnc4c(=O)n(C)c(N)nc43)CC(O)C2O1` (stereo unspecified), the result was inactive.
